Entries after “also recorded” stand apart in the source; their conditions may differ. Where a SMILES comes first, the peptide text is derived from it. [ ]: non-standard residue; d: D form. The star is where a group is joined. Cbz = O=C(OCc1ccccc1)*
Columns and labels:
Assay type in all cases: biochemical
Cathepsin Y [1] = target: T1, Cathepsin Y (Homo sapiens, UniProt Q9UBR2); test: Inhibition of Cathepsin Y carboxypeptidase activity (o-phthalaldehyde fluorescence, acetylated EGYYGNYGV substrate); conditions: pH 4.5
T1 construct: source of the purified preparation not in excerpts; cDNA from human HS683 cells, expressed in 293 cells
T1 sequence (Q9UBR2 62-303): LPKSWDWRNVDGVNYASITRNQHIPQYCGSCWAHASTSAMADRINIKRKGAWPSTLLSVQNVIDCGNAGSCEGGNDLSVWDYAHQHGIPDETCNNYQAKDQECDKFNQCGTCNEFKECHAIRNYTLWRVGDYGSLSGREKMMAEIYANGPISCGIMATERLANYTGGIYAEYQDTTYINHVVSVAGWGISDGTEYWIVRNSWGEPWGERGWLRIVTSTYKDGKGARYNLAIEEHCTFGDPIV
Experimental: (§1) This is accomplished by reacting with the reagent o-phthalaldehyde in an alkaline solution in the presence of 2-mercaptoethanol (Simons, et al., JACS, 98:7098-7099, (1976)).
(§2) A standard curve was constructed by incubating varying concentrations of valine (0-20 μM) in 0.25M sodium borate, pH 10, containing 0.05% 2-mercaptoethanol and 60 μg/mL o-phthalaldehyde, in individual wells of a 96 well microtiter plate. The resulting fluorescence is read in a plate reading Cytofluor (ex 340, em 460 nm). There is a linear increase in the signal proportional to the amount of free valine present (FIG. 7).
(§3) In order to determine the pH optimum of the enzyme, reaction mixtures were set up with enzyme and substrate (0.2 mg/mL) in a total reaction volume of 0.1 mL) in individual wells of 96-well microtiter plates, in 20 mM sodium acetate buffers at different pHs, with 0.1% 2-mercaptoethanol present. Control wells were set identically except for the […] of enzyme. At various time-points after incubation at room temperature, the reactions were quenched by the addition of an equal volume of 0.45M sodium borate, pH 10, with 0.25 mg/mL o-phthalaldehyde, and the fluorescence measured. In the absence of added enzyme, no measurable fluorescence is generated above background, even with extended incubations. In the presence of enzyme, there is a time-dependent increase in fluorescence.
Using this assay at pH 4.5, the ability of a number of compounds to inhibit the activity of Cathepsin Y was tested, by adding the desired concentration of the inhibitor in the incubation mixture along with enzyme and substrate, and measuring the decrease in fluorescence (if any) relative to enzyme control.

[2] = Activity of Cathepsin Y on synthetic substrates used for assaying Cathepsin B, L or S
APP = test: Proteolytic activity of purified Cathepsin Y on APP preparations; conditions: purified recombinant APP constructs and membrane-bound full-length APP
Cathepsin Y [3] = target: T1, Cathepsin Y; test: Cleavage of synthetic oligopeptides by purified Cathepsin Y (RP-HPLC, amino-acid analysis); conditions: for cleavage product(s) of parent oligopeptide with Cathepsin Y: 50 μg/mL peptide, pH 4.5 or 5.5, 1 hour, 37° C
Experimental: In an effort to identify whether the enzyme has other proteolytic activity, a number of randomly selected synthetic oligopeptides were incubated with purified Cathepsin Y at pH 5.5 or 4.5. Specifically, purified Cathepsin Y was incubated with the selected synthetic oligopeptides (50 μg/mL) at either pH 4.5 or pH 5.5, for 1 hour at 37° C. Samples were quenched by the addition of trifluoroacetic acid to 1% final concentration, then analyzed by reverse phase HPLC on a Vydac C18 column, using a gradient of increasing acetonitrile in 0.1% trifluoroacetic acid. Individual peaks (parent and new product(s)) were collected, then analyzed by acid hydrolysis followed by amino-acid analysis.

[4] = pH optimum of Cathepsin Y carboxypeptidase activity; conditions: 20 mM sodium acetate buffers, room temperature
Experimental: as §1, §2, §3

[5] = synthetic oligopeptides, pH 4.5 or 5.5

| Molecule | inhibition of Cathepsin Y activity (Cathepsin Y [1]) | cleavage product(s) of parent oligopeptide with Cathepsin Y (Cathepsin Y [3]) | further results |
| --- | --- | --- | --- |
| O=C[C@H](Cc1ccccc1)NC(=O)C(c1ccccc1)c1ccccc1 [Example 3] | indicated inhibition of Cathepsin Y activity | – | – |
| O=C[C@H](Cc1ccccc1)NC(=O)CCCCc1ccccc1 [Example 4] | indicated inhibition of Cathepsin Y activity | – | – |
| O=C[C@H](Cc1ccccc1)NC(=O)C(=Cc1ccccc1)c1ccccc1 [Example 7] | indicated inhibition of Cathepsin Y activity | – | – |
| CC(C)[C@H](NC(=O)OCc1ccccc1)C(=O)N[C@H](C=O)Cc1ccccc1 [Example 15] (Cbz-Val-Phe-aldehyde) | indicated inhibition of Cathepsin Y activity | – | – |
| CC(C)[C@@H](NC(=O)OCc1ccccc1)C(=O)N[C@H](C=O)Cc1ccccc1 [Example 24] (Cbz-[dV]-Phe-aldehyde) | indicated inhibition of Cathepsin Y activity | – | – |
| O=C[C@H](Cc1ccc(OCc2ccccc2)cc1)NC(=O)C(c1ccccc1)c1ccccc1 [Example 45] | indicated inhibition of Cathepsin Y activity | – | – |
| CSCC[C@@H](C=O)NC(=O)[C@@H](NC(=O)OCc1ccccc1)C(C)C [Example 47] (Cbz-Val-Met-aldehyde) | indicated inhibition of Cathepsin Y activity | – | – |
| O=C[C@H](Cc1ccccc1)NC(=O)Cc1ccccc1 [Example 59] | indicated inhibition of Cathepsin Y activity | – | – |
| O=C[C@H](Cc1ccccc1)NC(=O)C1c2ccccc2Oc2ccccc21 [Example 64] | indicated inhibition of Cathepsin Y activity | – | – |
| O=C[C@H](Cc1ccccc1)NC(=O)N(c1ccccc1)c1ccccc1 [Example 75] | indicated inhibition of Cathepsin Y activity | – | – |
| Cathepsin Y: novel carboxypeptidase having a molecular weight of approximately 31 kD and the amino acid sequence set forth in SEQ ID No. 3 | – | – | activity with known synthetic substrates for Cathepsin B, L or S [2]: No significant activity; effect on various APP preparations (APP): without effect; endopeptidase or aminopeptidase activity (Cathepsin Y [3]; [5]): No evidence of any endopeptidase or aminopeptidase activity; predominant proteolytic activity (Cathepsin Y [3]; [5]): carboxypeptidase activity; pH optimum for carboxypeptidase activity [4]: about 4.5 |
| EGYYGNYGV | – | EGYYGNYGV | – |
| EGYYGNYGVYA | – | EGYYGNYGVY; also recorded: EGYYGNYGV | – |
| FFDEPNPGVTIY | – | FFDEPNPGVT | – |
| LFYDQSPTATI | – | LFYDQSPTAT; also recorded: LFYDQSPTA; also recorded: LFYDQSPT | – |
| YKRDMVGGVVIA | – | YKRDMVGGVVI; also recorded: YKRDMVGGVV | – |
